Assay results reported in PubChem BioAssay (NCI).
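Where inhibition never reached the appropriate level, the endpoint shown equals the highest concentration tested. Otherwise, values were interpolated linearly from a five-concentration, 48-hour dose response in 96-well plates. TGI is the concentration that stops growth completely.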

What was measured:
Assay in all cases: DTP human tumour cell line panel, 48 h
[1] = system: SF-295 CNS
[2] = system: HOP-62 NSCLC
[3] = system: HCT-116 colon
[4] = system: OVCAR-8 ovarian
[5] = system: CAKI-1 renal
[6] = system: MCF7 breast
[7] = system: SN12C renal
[8] = system: SF-268 CNS
[9] = system: SK-MEL-28 melanoma
[10] = system: NCI-H460 lung
[11] = system: COLO 205 colon
[12] = system: NCI/ADR-RES ovarian
[13] = system: OVCAR-3 ovarian
[14] = system: HS 578T breast
[15] = system: RPMI-8226 leukemia
[16] = system: MALME-3M melanoma
[17] = system: BT-549 breast
[18] = system: DLD-1 colon
[19] = system: A498 renal
[20] = system: OVCAR-5 ovarian
[21] = system: RXF 393 renal
[22] = system: MDA-MB-435
[23] = system: M14 melanoma
[24] = system: LOX IMVI melanoma
[25] = system: KM20L2 colon
[26] = system: NCI-H522 lung
[27] = system: 786-0 renal
[28] = system: SNB-19 CNS
[29] = system: M19-MEL melanoma
[30] = system: HOP-18 NSCLC
[31] = system: XF 498 CNS
[32] = system: HL-60(TB) leukemia
[33] = system: OVCAR-4 ovarian
[34] = system: DU-145 prostate
[35] = system: SF-539 CNS
[36] = system: SR leukemia
[37] = system: KM12 colon
[38] = system: SNB-75 CNS
[39] = system: UO-31 renal
[40] = system: PC-3 prostate
[41] = system: SNB-78 CNS
[42] = system: SW-620 colon
[43] = system: T-47D breast
[44] = system: HT29 colon
[45] = system: SK-OV-3 ovarian
[46] = system: SK-MEL-2 melanoma
[47] = system: IGROV1 ovarian
[48] = system: UACC-257 melanoma
[49] = system: MDA-N
[50] = system: LXFL 529 NSCLC
[51] = system: NCI-H226 lung
[52] = system: A549 NSCLC
[53] = system: RXF-631 renal
[54] = system: NCI-H23 lung
[55] = system: DMS 273 small cell lung
[56] = system: ACHN renal
[57] = system: SK-MEL-5 melanoma
[58] = system: U251 CNS
[59] = system: HCC-2998 colon
[60] = system: UACC-62 melanoma
[61] = system: MOLT-4 leukemia
[62] = system: MDA-MB-231 breast
[63] = system: HOP-92 NSCLC
[64] = system: DMS 114 small cell lung
[65] = system: K-562 leukemia
[66] = system: EKVX NSCLC
[67] = system: CCRF-CEM leukemia
[68] = system: TK-10 renal
[69] = system: HCT-15 colon

O=C1C=C(Nc2ccccc2C(=O)CC(=O)C(=O)Nc2cccc(C(F)(F)F)c2)c2ccccc2C1=O
TGI [1]: 53.7 µM | TGI [2]: > 72.7 µM | TGI [3]: 74.3 µM | TGI [4]: 56.4 µM | TGI [5]: 99.8 µM | TGI [6]: 28.9 µM | TGI [7]: 36.3 µM | TGI [8]: 73.3 µM | TGI [9]: 54.8 µM | TGI [10]: > 100 µM | TGI [11]: > 100 µM | TGI [12]: 49.5 µM | TGI [13]: 53.8 µM | TGI [14]: 66.2 µM | TGI [15]: > 100 µM | TGI [16]: 28.7 µM | TGI [17]: 49.1 µM | TGI [18]: > 37.6 µM | TGI [19]: > 100 µM | TGI [20]: > 100 µM | TGI [21]: 93.3 µM | TGI [22]: 20.9 µM | TGI [23]: 31.7 µM | TGI [24]: 27.3 µM | TGI [25]: > 100 µM | TGI [26]: 79.2 µM | TGI [27]: > 97.2 µM | TGI [28]: > 100 µM | TGI [29]: 8.48 µM | TGI [30]: 40.6 µM | TGI [31]: 48.7 µM | TGI [32]: 24.2 µM | TGI [33]: > 87.4 µM | TGI [34]: > 100 µM | TGI [35]: 49 µM | TGI [36]: > 94.7 µM | TGI [37]: > 95.9 µM | TGI [38]: > 96.9 µM | TGI [39]: > 80.1 µM | TGI [40]: > 100 µM | TGI [41]: > 100 µM | TGI [42]: 48.6 µM | TGI [43]: > 100 µM | TGI [44]: > 100 µM | TGI [45]: > 100 µM | TGI [46]: 44.5 µM | TGI [47]: > 100 µM | TGI [48]: 31.8 µM | TGI [49]: 26.7 µM | TGI [50]: 71.5 µM | TGI [51]: > 100 µM | TGI [52]: > 89.8 µM | TGI [53]: > 100 µM | TGI [54]: 30.5 µM | TGI [55]: > 94.4 µM | TGI [56]: > 100 µM | TGI [57]: 30.8 µM | TGI [58]: 96.5 µM | TGI [59]: > 78 µM | TGI [60]: 32.3 µM | TGI [61]: > 57.9 µM | TGI [62]: > 91.1 µM | TGI [63]: > 94.3 µM | TGI [64]: 35.1 µM | TGI [65]: > 94.9 µM | TGI [66]: 98.7 µM | TGI [67]: 44.7 µM | TGI [68]: > 100 µM | TGI [69]: > 100 µM
